In brackets after ≈: the same amount, converted by molar mass. Activity calls are given as the source filed them. No cut-off for these calls is given here.
Columns and labels:
[1] = system: Saccharomyces cerevisiae; assay: Antifungal activity against Saccharomyces cerevisiae assessed as growth inhibition measured every 4 hrs; assay type: functional
[2] = system: Bacillus subtilis; assay: Antibacterial activity against Bacillus subtilis ATCC 23857 at <50 ug/ml measured every 1 hr; assay type: functional, organism-based
[3] = system: Pseudomonas putida; assay: Antibacterial activity against Pseudomonas putida ATCC 12633 at <50 ug/ml measured every 1 hr; assay type: functional, organism-based
[4] = Inhibition of DNA gyrase (unknown origin)-mediated DNA supercoiling
[5] = Inhibition of DNA gyrase (unknown origin)-mediated DNA relaxation
[6] = biological target: DNA topoisomerase 2-alpha (Homo sapiens, UniProt P11388); assay: Inhibition of topoisomerase-2 (unknown origin)
Sequence of DNA topoisomerase 2-alpha (P11388 whole entry): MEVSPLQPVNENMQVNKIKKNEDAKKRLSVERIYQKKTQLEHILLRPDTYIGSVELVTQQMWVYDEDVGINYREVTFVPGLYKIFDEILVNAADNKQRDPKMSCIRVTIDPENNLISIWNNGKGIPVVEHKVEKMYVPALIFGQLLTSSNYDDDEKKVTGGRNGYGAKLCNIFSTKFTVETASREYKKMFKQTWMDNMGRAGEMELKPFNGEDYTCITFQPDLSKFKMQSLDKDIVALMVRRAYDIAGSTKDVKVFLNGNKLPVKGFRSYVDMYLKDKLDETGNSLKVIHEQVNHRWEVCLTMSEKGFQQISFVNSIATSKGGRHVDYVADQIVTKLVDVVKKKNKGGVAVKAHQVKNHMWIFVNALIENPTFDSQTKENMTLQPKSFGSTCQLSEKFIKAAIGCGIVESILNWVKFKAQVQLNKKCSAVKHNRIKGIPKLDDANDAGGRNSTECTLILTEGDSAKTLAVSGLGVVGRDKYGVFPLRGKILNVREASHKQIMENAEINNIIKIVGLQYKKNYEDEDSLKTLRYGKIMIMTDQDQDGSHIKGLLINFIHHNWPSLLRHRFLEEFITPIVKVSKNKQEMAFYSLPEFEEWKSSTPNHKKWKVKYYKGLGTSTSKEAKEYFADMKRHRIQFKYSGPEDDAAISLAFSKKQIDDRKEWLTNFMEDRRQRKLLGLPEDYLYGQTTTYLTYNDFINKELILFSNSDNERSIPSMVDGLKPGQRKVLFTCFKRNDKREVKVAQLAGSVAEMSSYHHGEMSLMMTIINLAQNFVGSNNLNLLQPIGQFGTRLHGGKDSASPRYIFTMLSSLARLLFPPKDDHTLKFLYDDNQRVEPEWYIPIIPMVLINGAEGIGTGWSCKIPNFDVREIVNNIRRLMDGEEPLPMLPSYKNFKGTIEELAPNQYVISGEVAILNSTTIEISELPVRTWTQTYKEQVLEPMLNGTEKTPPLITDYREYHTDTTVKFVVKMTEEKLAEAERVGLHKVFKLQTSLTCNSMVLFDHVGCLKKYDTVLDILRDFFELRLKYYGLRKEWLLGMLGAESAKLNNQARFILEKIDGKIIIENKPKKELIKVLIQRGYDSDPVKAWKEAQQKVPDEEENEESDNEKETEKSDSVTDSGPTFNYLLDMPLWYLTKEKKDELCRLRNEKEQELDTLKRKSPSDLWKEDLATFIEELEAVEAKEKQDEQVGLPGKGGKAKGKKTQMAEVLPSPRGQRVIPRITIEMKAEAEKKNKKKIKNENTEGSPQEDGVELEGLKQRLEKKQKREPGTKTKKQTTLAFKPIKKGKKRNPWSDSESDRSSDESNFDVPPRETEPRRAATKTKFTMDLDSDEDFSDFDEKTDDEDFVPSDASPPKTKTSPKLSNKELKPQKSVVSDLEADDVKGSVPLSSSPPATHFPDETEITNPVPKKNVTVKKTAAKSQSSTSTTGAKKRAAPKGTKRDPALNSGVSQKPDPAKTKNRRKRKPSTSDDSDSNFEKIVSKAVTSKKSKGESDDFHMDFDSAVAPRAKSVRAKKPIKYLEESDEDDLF

NYSTATIN gave an MIC [1] of under 5 µg/mL.

In the case of `Cc1c(O)cc(C[C@@H](O)CCCCCCCO)oc1=O`, the Activity [2] is reported as “inactive” and the Activity [3] is reported as “inactive”.

With `C[C@@H](O)CCCCC[C@H]1Cc2cc(O)c(C(=O)O)c(O)c2[C@@H](O)O1` the Activity [2] was “inactive”, the MIC [1] was 100 µg/mL (≈ 294 µM) and the Activity [3] was “inactive”.

In the case of `CCCCCCC[C@H]1Cc2cc(O)c(C(=O)O)c(O)c2[C@@H](O)O1`, the IC50 [4] is reported as 6 µg/mL (≈ 18.5 µM), the IC50 [5] is reported as 9 µg/mL (≈ 27.7 µM) and the IC50 [6] is reported as 3.08 µM.

For `CCCCCCC[C@@H](O)C[C@H](O)Cc1cc(O)c(C)c(=O)o1`, the Activity [2] was “inactive” and the Activity [3] was “inactive”.

In the case of `Cc1c(O)cc(C[C@@H](O)C[C@H](O)CCCCCCCO)oc1=O`, the Activity [2] is reported as “inactive” and the Activity [3] is reported as “inactive”.

For `C[C@@H](O)CCCCC[C@H]1Cc2cc(O)c(C(=O)O)c(O)c2CO1`, the Activity [2] was “inactive”, the MIC [1] was 100 µg/mL (≈ 308 µM) and the Activity [3] was “inactive”.

In the case of `O=C(O)c1c(O)cc2c(c1O)[C@@H](O)O[C@@H](CCCCCCCO)C2`, the Activity [2] is reported as “inactive”, the MIC [1] is reported as 100 µg/mL (≈ 294 µM) and the Activity [3] is reported as “inactive”.

With `O=C(O)c1c(O)cc2c(c1O)CO[C@@H](CCCCCCCO)C2` the Activity [2] was “inactive”, the MIC [1] was 100 µg/mL (≈ 308 µM) and the Activity [3] was “inactive”.

From ChEMBL document CHEMBL3108777, “Isochromans and α-pyrones from Penicillium corylophilum” (J Nat Prod, 2014)
